Measurements from US6630469B2, “5-HT7 receptor antagonists” (Bristol-Myers Squibb Company, priority 2000, dated 2003).

Target: T1, human 5-HT7 receptor (Homo sapiens, UniProt P34969)
T1 construct: expressed in transfected cells; host or cells: CHO cells
Assay: 5-HT7 Receptor Binding Assay
Conditions: membranes of CHO cells expressing human 5-HT7 receptor; 1 nM 3H-5-carboxamidotryptamine; 25° C., 60 minutes
Description: 5-HT7 Receptor Binding Assay
Membranes are prepared for binding using the human 5-HT7 receptor expressed in CHO cells. Cells are collected and ruptured using a dounce homogenizer. The cells are spun at 18000× g for 10 minutes and the pellet is resuspended in assay buffer, frozen in liquid nitrogen and kept at −80° C. until the day of the assay.
A total of 30 ug protein is used per well. The assay is carried out in 96-deep-well plates. The assay buffer is 50 mM HEPES. The membrane preparation is incubated at 25° C. for 60 minutes with 0.1 nM to 1000 nM test compound and 1 nM ^3H-5-carboxamidotryptamine. 10 uM serotonin is used as blocking agent to determine non-specific binding. The reaction is terminated by the addition of 1 ml of ice cold 5OmM HEPES buffer and rapid filtration through a Brandel Cell Harvester using Whatman GF/B filters. The filter pads are counted in an LKB Trilux liquid scintillation counter. IC50 values are determined using non-linear regression by Exel-fit.

T1 sequence (P34969 whole entry): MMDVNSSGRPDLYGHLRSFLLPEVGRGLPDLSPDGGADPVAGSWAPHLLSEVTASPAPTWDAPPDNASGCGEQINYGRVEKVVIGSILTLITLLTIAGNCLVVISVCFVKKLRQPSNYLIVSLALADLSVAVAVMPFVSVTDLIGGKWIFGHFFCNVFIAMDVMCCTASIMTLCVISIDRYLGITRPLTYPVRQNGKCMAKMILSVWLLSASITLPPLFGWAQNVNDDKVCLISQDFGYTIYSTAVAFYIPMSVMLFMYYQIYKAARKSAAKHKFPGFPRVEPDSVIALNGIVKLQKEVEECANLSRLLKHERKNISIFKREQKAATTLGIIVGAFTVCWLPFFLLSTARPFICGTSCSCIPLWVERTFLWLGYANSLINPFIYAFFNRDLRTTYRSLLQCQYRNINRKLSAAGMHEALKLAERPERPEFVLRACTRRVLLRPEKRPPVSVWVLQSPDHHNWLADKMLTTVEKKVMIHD

IC50 [nM] | SMILES
51 to 100 | C[C@H](Nc1nc(N)nc(NCCc2ccc(Cl)cc2)n1)c1ccc([N+](=O)[O-])cc1 [Compound 59, N^2-[2-(4-Chlorophenyl)ethyl]-N^4-[(1S)-1-(4-nitrophenyl)ethyl]-1,3,5-triazine-2,4,6-triamine]
≤ 50 | C[C@H](Nc1nc(N)nc(NCCc2ccccc2)n1)c1ccccc1 [Compound 60, N^2-[(1S)-1-Phenylethyl]-N^4-(2-phenylethyl)-1,3,5-triazine-2,4,6-triamine]
≤ 50 | C[C@H](Nc1nc(N)nc(NCCc2cccc(F)c2)n1)c1ccccc1 [Compound 61, N^2-[2-(3-Fluorophenyl)ethyl]-N^4-[(1S)-1-phenylethyl]-1,3,5-triazine-2,4,6-triamine]
≤ 50 | C[C@H](Nc1nc(N)nc(NCCc2cccc(Cl)c2)n1)c1ccccc1 [Compound 62, N^2-[2-(3-Chlorophenyl)ethyl]-N^4-[(1S)-1-phenylethyl]-1,3,5-triazine-2,4,6-triamine]
≤ 50 | C[C@H](Nc1nc(N)nc(NCCc2ccc(F)cc2)n1)c1ccccc1 [Compound 64, N^2-[2-(4-Fluorophenyl)ethyl]-N^4-[(1S)-1-phenylethyl]-1,3,5-triazine-2,4,6-triamine]
≤ 50 | CC[C@H](Nc1nc(N)nc(NCCc2ccccc2)n1)c1ccccc1 [Compound 65, N^2-2-Phenylethyl-N^4-[(1S)-1-phenylpropyl]-1,3,5-triazine-2,4,6-triamine]
≤ 50 | C[C@H](Nc1nc(N)nc(NCCc2cccc(F)c2)n1)c1ccc(Br)cc1 [Compound 68, N^2-[(1S)-1-(4-Bromophenyl)ethyl]-N^4-[2-(3-fluorophenyl)ethyl]-1,3,5-triazine-2,4,6-triamine]
≤ 50 | CC[C@H](Nc1nc(N)nc(NCCc2cccc(Cl)c2)n1)c1ccccc1 [Compound 69, N^2-[2-(3-Chlorophenyl)ethyl]-N^4-[(1S)-1-phenylpropyl]-1,3,5-triazine-2,4,6-triamine]
≤ 50 | C[C@H](Nc1nc(N)nc(NCCc2ccc(O)cc2)n1)c1ccc([N+](=O)[O-])cc1 [Compound 75, N^2-[2-(4-Hydroxyphenyl)ethyl]-N^4-[(1S)-1-(4-nitrophenyl)ethyl]-1,3,5-triazine-2,4,6-triamine]
≤ 50 | COc1cccc(CCNc2nc(N)nc(N[C@@H](C)c3ccc([N+](=O)[O-])cc3)n2)c1 [Compound 77, N^2-[2-(3-Methoxyphenyl)ethyl]-N^4-[(1S)-1-(4-nitrophenyl)ethyl]-1,3,5-triazine-2,4,6-triamine]
≤ 50 | Cc1ccc(CCNc2nc(N)nc(N[C@@H](C)c3ccc([N+](=O)[O-])cc3)n2)cc1 [Compound 79, N^2-[2-(4-Methylphenyl)ethyl]-N^4-[(1S)-1-(4-nitrophenyl)ethyl]-1,3,5-triazine-2,4,6-triamine]
≤ 50 | C[C@H](Nc1cc(NCCOc2ccc(F)cc2)ncn1)c1ccccc1 [Example 16, N^4-[2-(4-Fluorophenoxy)ethyl]-N^6-[(1S)-1-phenylethyl]pyrimidine-4,6-diamine]
≤ 50 | C[C@H](Nc1nc(N)nc(NCCc2ccc(F)cc2)n1)c1ccc(F)cc1 [Example 17, N^2-[(1S)-1-(4-Fluorophenyl)ethyl]-N^4-[2-(4-fluorophenyl)ethyl]-1,3,5-triazine-2,4,6-triamine]
≤ 50 | FC(F)(F)c1cccc(CNc2ccnc(NCCOc3ccccc3)n2)c1 [N^2-(2-Phenoxyethyl)-N^4-[3-(trifluoromethyl)phenylmethyl]pyrimidine-2,4-diamine]
101 to 200 | FC(F)(F)c1ccc(CNc2ccnc(NCCOc3ccccc3)n2)cc1 [N^2-(2-Phenoxyethyl)-N^4-[4-(trifluoromethyl)phenylmethyl]pyrimidine-2,4-diamine]
101 to 200 | C[C@@H](Nc1ccnc(NCCOc2ccccc2)n1)c1ccccc1 [N^2-(2-Phenoxyethyl)-N^4-[(1R)-1-phenylethyl]pyrimidine-2,4-diamine]
≤ 50 | C[C@H](Nc1ccnc(NCCOc2ccccc2)n1)c1ccccc1 [N^2-(2-Phenoxyethyl)-N^4-[(1S)-1-phenylethyl]pyrimidine-2,4-diamine]
≤ 50 | CC[C@H](Nc1ccnc(NCCOc2ccccc2)n1)c1ccccc1 [N^2-(2-Phenoxyethyl)-N^4-[(1S)-1-phenylpropyl]pyrimidine-2,4-diamine]
≤ 50 | c1ccc(CCNc2nccc(NCc3ccccc3)n2)cc1 [N^2-(2-Phenylethyl)-N^4-(phenylmethyl)pyrimidine-2,4-diamine]
≤ 50 | FC(F)(F)c1cccc(CNc2ccnc(NCCc3ccccc3)n2)c1 [N^2-(2-Phenylethyl)-N^4-[3-(trifluoromethyl)phenylmethyl]pyrimidine-2,4-diamine]
101 to 200 | FC(F)(F)c1ccc(CNc2ccnc(NCCc3ccccc3)n2)cc1 [N^2-(2-Phenylethyl)-N^4-[4-(trifluoromethyl)phenylmethyl]pyrimidine-2,4-diamine]
101 to 200 | C[C@@H](Nc1ccnc(NCCc2ccccc2)n1)c1ccccc1 [N^2-(2-Phenylethyl)-N^4-[(1R)-1-phenylethyl]pyrimidine-2,4-diamine]
51 to 100 | CC[C@@H](Nc1ccnc(NCCc2ccccc2)n1)c1ccccc1 [N^2-(2-Phenylethyl)-N^4-[(1R)-1-phenylpropyl]pyrimidine-2,4-diamine]
≤ 50 | CC[C@H](Nc1ccnc(NCCc2ccccc2)n1)c1ccccc1 [N^2-(2-Phenylethyl)-N^4-[(1S)-1-phenylpropyl]pyrimidine-2,4-diamine]

The remaining lines, values behind:

SMILES | IC50 [nM]
CC[C@H](Nc1nc(N)nc(NCCc2cccc(F)c2)n1)c1ccccc1 [Compound 63, N^2-[2-(3-Fluorophenyl)ethyl]-N^4-[(1S)-1-phenylpropyl]-1,3,5-triazine-2,4,6-triamine] | ≤ 50
C[C@H](Nc1nc(N)nc(NCCc2cccc(Br)c2)n1)c1ccccc1 [Compound 66, N^2-[2-(3-Bromophenyl)ethyl]-N^4-[(1S)-1-phenylethyl]-1,3,5-triazine-2,4,6-triamine] | ≤ 50
CC[C@H](Nc1nc(N)nc(NCCc2ccc(F)cc2)n1)c1ccccc1 [Compound 67, N^2-[2-(4-Fluorophenyl)ethyl]-N^4-[(1S)-1-phenylpropyl]-1,3,5-triazine-2,4,6-triamine] | ≤ 50
C[C@H](Nc1nc(N)nc(NCCc2ccc(F)cc2)n1)c1ccc(Br)cc1 [Compound 70, N^2-[(1S)-1-(4-Bromophenyl)ethyl]-N^4-[2-(4-fluorophenyl)ethyl]-1,3,5-triazine-2,4,6-triamine] | ≤ 50
C[C@H](Nc1nc(N)nc(NCCc2ccc(Cl)c(Cl)c2)n1)c1ccccc1 [Compound 71, N^2-[2-(3,4-Dichlorophenyl)ethyl]-N^4-[(1S)-1-phenylethyl]-1,3,5-triazine-2,4,6-triamine] | ≤ 50
Cc1ccc(CCNc2nc(N)nc(N[C@@H](C)c3ccccc3)n2)cc1 [Compound 72, N^2-[2-(4-Methylphenyl)ethyl]-N^4-[(1S)-1-phenylethyl]-1,3,5-triazine-2,4,6-triamine] | ≤ 50
C[C@H](Nc1nc(N)nc(NCCc2cccc(O)c2)n1)c1ccccc1 [Compound 73, N^2-[2-(3-Hydroxyphenyl)ethyl]-N^4-[(1S)-1-phenylethyl]-1,3,5-triazine-2,4,6-triamine] | ≤ 50
C[C@H](Nc1nc(N)nc(NCCc2ccc(F)cc2)n1)c1ccc([N+](=O)[O-])cc1 [Compound 74, N^2-[2-(4-Fluorophenyl)ethyl]-N^4-[(1S)-1-(4-nitrophenyl)ethyl]-1,3,5-triazine-2,4,6-triamine] | ≤ 50
C[C@H](Nc1nc(N)nc(NCCc2ccccc2F)n1)c1ccc([N+](=O)[O-])cc1 [Compound 76, N^2-[2-(2-Fluorophenyl)ethyl]-N^4-[(1S)-1-(4-nitrophenyl)ethyl]-1,3,5-triazine-2,4,6-triamine] | ≤ 50
C[C@H](Nc1nc(N)nc(NCCc2ccc(N)cc2)n1)c1ccc([N+](=O)[O-])cc1 [Compound 78, N^2-[2-(4-Aminophenyl)ethyl]-N^4-[(1S)-1-(4-nitrophenyl)ethyl]-1,3,5-triazine-2,4,6-triamine] | ≤ 50
COc1cc(CCNc2nc(N)nc(N[C@@H](C)c3ccc([N+](=O)[O-])cc3)n2)ccc1O [Compound 80, N^2-[2-(4-Hydroxy-3-methoxyphenyl)ethyl]-N^4-[(1S)-1-(4-nitrophenyl)ethyl]-1,3,5-triazine-2,4,6-triamine] | ≤ 50
C[C@H](Nc1nc(N)nc(NCCc2ccccn2)n1)c1ccc(F)cc1 [Example 18, N^2-[(1S)-1-(4-Fluorophenyl)ethyl]-N^4-[2-(2-pyridinyl)ethyl]-1,3,5-triazine-2,4,6-triamine] | ≤ 50
Nc1nc(NCCc2ccccc2)nc(NCc2ccccc2Cl)n1 [N^2-(2-Chlorophenylmethyl)-N^4-(2-phenylethyl)-1,3,5-triazine-2,4,6-triamine] | ≤ 50
c1ccc(CNc2ccnc(NCCOc3ccccc3)n2)cc1 [N^2-(2-Phenoxyethyl)-N^4-(phenylmethyl)pyrimidine-2,4-diamine] | ≤ 50
CC[C@@H](Nc1ccnc(NCCOc2ccccc2)n1)c1ccccc1 [N^2-(2-Phenoxyethyl)-N^4-[(1R)-1-phenylpropyl]pyrimidine-2,4-diamine] | 101 to 200
CC(Nc1ccnc(NCCSc2ccccc2)n1)c1ccccc1 (centres unmarked) [N^2-(2-Phenthioethyl)-N^4-(1-phenylethyl)pyrimidine-2,4-diamine] | 51 to 100
c1ccc(CCNc2nccc(NCc3ccncc3)n2)cc1 [N^2-(2-Phenylethyl)-N^4-(4-pyridinylmethyl)pyrimidine-2,4-diamine] | 101 to 200
